Series [1] deals with T1, human CYP2D6 (Homo sapiens, UniProt P10635).
T1 construct: host or cells: insect cells (microsomes)
The series is described as follows: Inhibitory effect on CYP2D6. It is filed as in vitro ADME. To be noted: for Inhibitory effect on CYP2D6 (in words): microsome from insect cells expressing human CYP2D6, 72 to 0.0329 μmol/L. On the procedure: Inhibitory effects of the compound of Example 3, Comparative Compound 1, Comparative Compound 2 and Comparative Compound 3 on human hepatic drug-metabolizing enzyme CYP2D6 were compared. A microsome prepared from insect cells expressing human CYP2D6 was used, and a substrate was 3-[2-(N,N-diethyl-N-methylammonium)ethyl]-7-methoxy-4-methylcoumarin iodide. The reaction was conducted in a phosphate buffer solution (100 mmol/L, pH 7.4) including final concentrations of 20 nmol/L for the enzyme, 1.5 μmol/L for the substrate, 1.55 mmol/L for nicotinamide adenine dinucleotide phosphate oxidized form (NADP+), 3.3 mmol/L for glucose-6-phosphate, 3.3 mmol/L for magnesium chloride and 0.4 Units/mL for glucose-6-phosphate dehydrogenase (G6PDH). The concentrations of the respective compounds in the reaction solution were prepared in a 3-fold dilution series with a final concentration range of 72 to 0.0329 μmol/L. The reaction solutions were incubated at 37° C. for 30 min. Then the reaction was terminated by a 80% acetonitrile solution (containing tris at a final concentration of 0.1 mol/L), and the enzyme activity was determined by measuring fluorescence with wavelength of 465 nm using excitation wavelength of 400 nm. The inhibitory effect was expressed as IC50. Quinidine was used as a positive control.

Series [2] in a line: Repeated intravenous dose toxicity study in mice (plasma AST, ALT). It is filed as in vivo. To be noted: ICR male mice, i.v. once daily for 3 days (25 mg/kg or 6.25 mg/kg), day 1 after completion; relative to saline control. On the procedure:
As Test Compounds, the compound of Example 3, Comparative Compound 2 and Comparative Compound 3 were used.
A repeated intravenous dose toxicity study was conducted using ICR strain male mice (6 week-old, 5 mice/group). The administration solutions were prepared by adding 3-fold molar amount of hydrochloric acid to the respective Test Compounds, and further adding a sterile physiological saline solution. The compounds of Example 3 and Comparative Compound 2, respectively at 25 mg/kg, and Comparative Compound 1 at 6.25 mg/kg were administered into the tail vein once daily for 3 days. To the control group, a sterile physiological saline solution was administered.
On day 1 after the completion of the administration, each mouse was etherized. Blood samples were taken from the abdominal vein using an injection syringe containing heparin as an anticoagulant (Novo-Heparin 1,000 units for injection, Aventis Pharma Ltd.), and the samples were centrifuged (3,300 rpm, 4° C., 10 min; Kubota Model 5900) to obtain the plasma. The blood biochemical tests with respect to aspartate aminotransferase (AST) and alanine aminotransferase (ALT) for the samples were conducted according to the JSCC consensus measuring method. The values for the Test Compounds and Comparative Compounds were calculated based on the values for the control (administration of a sterile physiological saline solution) as 100.

The test system of series [3] is Vero cells. Description: Growth inhibition test on Vero cells (XTT). It is filed as cell-based. To be noted: 50 μg/mL, 3 days culture, XTT absorbance versus control. On the procedure:
As Test Compounds, the compounds of Example 1 and Example 2 and Comparative Compound 1 were used.
The cytotoxicity of the compounds was evaluated using Vero cells. The respective Test Compounds were dissolved in dimethylsulfoxide (DMSO) to prepare solutions at 10 mg/mL. The solutions were diluted with E′MEM with 10% FBS to a final concentration of 50 μg/mL and placed onto a 96-well plate. The cells were suspended in E′MEM with 10% FBS and seeded onto the 96-well plate at 3000 cells/well and then cultured in a CO2 incubator at 37° C. for 3 days. The growth of Vero cells was evaluated by an assay using 2,3-bis-(2-methoxy-4-nitro-5-sulfophenyl)-5-[(phenylamino)carbonyl]-2H-tetrazolium (inner salt) monosodium salt (“XTT”). Namely, an XTT solution containing 1 mg/mL of XTT and 25 μmol/L of phenazine methosulfate (PMS) was added to each well. After incubating in a CO2 incubator for 2 hours, the absorbance at 450 nm (reference at 655 nm) of the respective wells was measured by a microplate reader. The T/C (%) was calculated from the absorbance ratios of the control (without the Compound) and the respective wells.

Series [4] addresses T2, human CYP3A4 (Homo sapiens, UniProt P08684).
T2 construct: host or cells: insect cells (microsomes)
Description: Inhibitory effect on CYP3A4. It is filed as in vitro ADME. To be noted: microsome from insect cells expressing human CYP3A4, dibenzylfluorescein, 37° C. 15 min, 72 to 0.0329 μmol/L. On the procedure: Inhibitory effects of the compound of Example 3 and Comparative Compound 1 on human hepatic drug-metabolizing enzyme CYP3A4 were compared. A microsome prepared from insect cells expressing human CYP3A4 was used. Dibenzylfluorescein was used as a substrate. The reaction was conducted in a phosphate buffer solution (100 mmol/L, pH 7.4) including final concentrations of 2.5 nmol/L for the enzyme, 1.0 μmol/L for the substrate, 1.55 mmol/L for nicotinamide adenine dinucleotide phosphate oxidized form (NADP+), 3.3 mmol/L for glucose-6-phosphate, 3.3 mmol/L for magnesium chloride and 0.4 Units/mL for glucose-6-phosphate dehydrogenase (G6PDH). The concentrations of the respective compounds in the reaction solution were prepared in a 3-fold dilution series with a final concentration range of 72 to 0.0329 μmol/L. The reaction solutions were incubated at 37° C. for 15 min. Then the reaction was terminated by a 2 mol/L sodium hydroxide aqueous solution, and the solution was further incubated at 37° C. for 2 hours. The enzyme activity was determined by measuring fluorescence with wavelength of 535 nm using excitation wavelength of 485 nm. The inhibitory effect was expressed as IC50. Clotrimazole was used as a positive control.

Series [5] deals with Aspergillus fumigatus IFM46895. The series is described as follows: Murine Aspergillus infection model (oral administration). To be noted: cyclophosphamide-compromised male mice; 10 mg/kg orally, 7 times; observed 21 days after infection. Type of series: in vivo. On the procedure: As Test Compounds, the compound of Example 3 and Comparative Compound 1 were used.
Spores of Aspergillus fumigatus IFM46895 were cultured on a potato dextrose agar medium at 30° C. for a week. The recovered spores were suspended in a sterile physiological saline solution containing 0.05% Tween 80, which was then diluted to prepare an inoculum solution.
Male mice (4 week-old, 5 mice/group) were administered intraperitoneally with 200 mg/kg of cyclophosphamide 4 days before infection and 100 mg/kg on the following day after the infection to obtain transient compromised condition. Each 0.2 mL of the inoculum solution was inoculated into the tail vein of each mouse to induce infection (about 1×10^5 CFU/mouse). The Test Compounds were dissolved in a small amount of 0.1 mol/L hydrochloric acid, and the solution was diluted with a sterile distilled water to obtain a 1 mg/mL solution. The solution was administered orally at the dose of 10 mL/kg body weight of mouse (10 mg/kg body weight). The administrations were conducted once 2 hours after the infection and once daily for the following 6 days, totaling 7 times. To a group receiving no Test Compounds, an equal amount of a sterile physiological saline solution was administered. Viability of the mice was observed and recorded for 21 days after infection.

Series [6] deals with T3, human CYP2C19 (Homo sapiens, UniProt P33261).
T3 construct: host or cells: insect cells (microsomes)
T3 sequence (P33261 whole entry): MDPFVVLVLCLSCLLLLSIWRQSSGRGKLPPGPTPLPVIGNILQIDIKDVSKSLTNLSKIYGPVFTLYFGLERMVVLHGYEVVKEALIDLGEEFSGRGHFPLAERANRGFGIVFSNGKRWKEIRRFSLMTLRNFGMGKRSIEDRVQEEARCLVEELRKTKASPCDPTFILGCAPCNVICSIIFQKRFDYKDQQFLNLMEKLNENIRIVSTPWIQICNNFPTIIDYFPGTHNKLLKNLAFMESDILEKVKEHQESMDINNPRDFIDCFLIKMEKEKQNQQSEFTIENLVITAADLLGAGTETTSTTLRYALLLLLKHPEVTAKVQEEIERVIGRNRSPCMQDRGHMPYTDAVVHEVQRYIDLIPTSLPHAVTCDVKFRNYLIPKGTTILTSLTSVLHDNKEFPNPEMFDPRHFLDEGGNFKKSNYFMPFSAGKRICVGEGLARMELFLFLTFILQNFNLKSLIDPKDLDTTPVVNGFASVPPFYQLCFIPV
Description: Inhibitory effect on CYP2C19. It is filed as in vitro ADME. To be noted: microsome from insect cells expressing human CYP2C19, dibenzylfluorescein, 37° C. 30 min, 72 to 0.0329 μmol/L. On the procedure: Inhibitory effects of the compound of Example 3 and Comparative Compound 1 on human hepatic drug-metabolizing enzyme CYP2C19 were compared. A microsome prepared from insect cells expressing human CYP2C19 was used. Dibenzylfluorescein was used as a substrate. The reaction was conducted in a phosphate buffer solution (100 mmol/L, pH 7.4) including final concentrations of 15 nmol/L for the enzyme, 1.0 μmol/L for the substrate, 1.55 mmol/L for nicotinamide adenine dinucleotide phosphate oxidized form (NADP+), 3.3 mmol/L for glucose-6-phosphate, 3.3 mmol/L for magnesium chloride and 0.4 Units/mL for glucose-6-phosphate dehydrogenase (G6PDH). The concentrations of the respective compounds in the reaction solution were prepared in a 3-fold dilution series with a final concentration range of 72 to 0.0329 μmol/L. The reaction solutions were incubated at 37° C. for 30 min. Then the reaction was terminated by a 2 mol/L sodium hydroxide aqueous solution, and the reactant was further incubated at 37° C. for 2 hours. The enzyme activity was determined by measuring fluorescence with wavelength of 535 nm using excitation wavelength of 485 nm. The inhibitory effect was represented as IC50. Tranylcypromine was used as a positive control.

These results are taken from patent US8536343B2, “Arylamidine derivative, salt thereof and antifungal agent containing those” (Toyama Chemical Co., Ltd., priority 2005, dated 2013).

Broadly, the IC50 is the concentration at which inhibition is half-maximal.

T1 sequence (P10635 whole entry): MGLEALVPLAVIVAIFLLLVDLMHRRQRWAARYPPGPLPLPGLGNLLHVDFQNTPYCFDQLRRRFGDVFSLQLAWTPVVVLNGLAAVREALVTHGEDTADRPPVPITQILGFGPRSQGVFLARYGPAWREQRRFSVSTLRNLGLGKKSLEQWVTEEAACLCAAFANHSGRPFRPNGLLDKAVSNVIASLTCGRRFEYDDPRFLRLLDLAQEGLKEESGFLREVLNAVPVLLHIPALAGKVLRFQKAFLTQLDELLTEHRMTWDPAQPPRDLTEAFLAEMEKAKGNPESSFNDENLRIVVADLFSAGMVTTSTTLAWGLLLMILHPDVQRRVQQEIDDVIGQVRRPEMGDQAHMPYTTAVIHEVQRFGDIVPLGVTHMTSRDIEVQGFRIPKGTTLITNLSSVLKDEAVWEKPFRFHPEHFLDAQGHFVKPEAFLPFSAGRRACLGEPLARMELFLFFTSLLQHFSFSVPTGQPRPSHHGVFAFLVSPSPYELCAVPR
T2 sequence (P08684 whole entry): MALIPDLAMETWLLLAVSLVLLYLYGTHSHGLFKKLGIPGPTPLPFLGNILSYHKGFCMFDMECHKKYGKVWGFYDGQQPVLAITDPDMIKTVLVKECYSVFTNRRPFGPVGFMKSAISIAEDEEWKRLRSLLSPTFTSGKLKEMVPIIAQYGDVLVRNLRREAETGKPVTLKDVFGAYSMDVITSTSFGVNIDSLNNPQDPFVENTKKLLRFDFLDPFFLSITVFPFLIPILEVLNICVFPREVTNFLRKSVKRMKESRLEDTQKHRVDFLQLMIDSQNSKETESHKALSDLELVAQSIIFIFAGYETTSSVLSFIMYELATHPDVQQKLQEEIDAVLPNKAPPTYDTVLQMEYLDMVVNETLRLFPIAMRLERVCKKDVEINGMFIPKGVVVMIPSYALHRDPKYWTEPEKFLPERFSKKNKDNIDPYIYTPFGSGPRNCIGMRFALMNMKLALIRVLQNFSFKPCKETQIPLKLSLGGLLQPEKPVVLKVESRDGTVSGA

For the molecule `CCOC(=O)/N=C(\N)c1ccc(OCCCC2CCN(CCCOc3ccc(/C(N)=N/C(=O)OCC)cc3)CC2)cc1` [Comparative Compound 2], in series [1], the “Inhibitory effect on CYP2D6 (in words)” value is listed as “inhibited human CYP2D6”. In addition, in series [2], the “ALT (alanine aminotransferase) in plasma” value is given as “increases” and the “AST (aspartate aminotransferase) in plasma” value is “increases”.

Take `CC(C)OC(=O)/N=C(\N)c1ccc(OCCCC2CCN(CCCOc3ccc(/C(N)=N/C(=O)OC(C)C)cc3)CC2)cc1` [Example 2, 4-{3-[4-(3-{4-[amino(isopropoxycarbonylimino)methyl]phenoxy}propyl)-1-piperidinyl]propoxy}-N′-(isopropoxycarbonyl)benzamidine]: the “Cytotoxicity T/C (%)” value in series [3] came to 100%.

As to `N/C(=N\C(=O)OCc1ccccc1)c1ccc(OCCCN2CCN(CCCOc3ccc(/C(N)=N/C(=O)OCc4ccccc4)cc3)CC2)cc1` [Comparative Compound 1, reference compound], the half-inhibitory concentration (IC50) in series [1] (microsome from insect cells expressing human CYP2D6, fluorescent substrate, 37° C. 30 min, 72 to 0.0329 μmol/L) stood at 0.68 µM; in series [4], 4.73 µM; in series [6], 4.36 µM. Moreover, the “Cytotoxicity T/C (%)” value in series [3] was determined as 1%. Further, the mice survived in series [5] is given as 20%.

On to `CCCCCOC(=O)/N=C(\N)c1ccc(OCCCN2CCC(CCCOc3ccc(C(N)NC(=O)OCCCCC)cc3)CC2)cc1` (stereo not shown) [Comparative Compound 3], for which the “Inhibitory effect on CYP2D6 (in words)” value in series [1] is “inhibited human CYP2D6”. In series [2], the “ALT (alanine aminotransferase) in plasma” value was “increases” and the “AST (aspartate aminotransferase) in plasma” value is recorded as “increases”.

On to `CCCOC(=O)/N=C(\N)c1ccc(OCCCC2CCN(CCCOc3ccc(/C(N)=N/C(=O)OCCC)cc3)CC2)cc1` [Example 1, 4-{3-[4-(3-{4-[amino(propoxycarbonylimino)methyl]phenoxy}propyl)-1-piperidinyl]propoxy}-N′-(propoxycarbonyl)benzamidine], for which the “Cytotoxicity T/C (%)” value in series [3] is 100%.
